{"source": "PubChem BioAssay AID2305", "about": "(GlaxoSmithKline (GSK), 2010)", "tested_on": "P. falciparum 3D7 growth, pLDH absorbance", "assay": "blood-stage malaria parasite growth potency – strain 3D7, dose response (AID 2305)"}
{"compound": "O=C(Nc1cccc(CN2CCCN(Cc3cccc(O)c3)CC2)c1)c1ccc(Cl)c(Cl)c1", "values": [{"measurement": "IC50", "value": 660, "unit": "nM"}]}
{"compound": "O=c1c(Br)ccccc1Br", "values": [{"measurement": "IC50", "value": 790, "unit": "nM"}]}
{"compound": "O=C(NCc1ccc(C(F)(F)F)cc1)c1cccc(-c2nnc(-c3cccc(-c4cncnc4)c3)o2)c1", "values": [{"measurement": "IC50", "value": 540, "unit": "nM"}]}
{"compound": "c1ccc(CN2CCc3cc4nccc(N5CCNCC5)c4cc32)cc1", "values": [{"measurement": "IC50", "value": 400, "unit": "nM"}]}
{"compound": "Cc1cc2c(cc1C(F)(F)F)N(C(=O)Nc1ccc(C(=O)NC3CCN(Cc4ccccc4)C3)cc1)CC2", "note": "(stereo not given)", "values": [{"measurement": "IC50", "value": 780, "unit": "nM"}]}
{"compound": "COc1ccc(Cl)cc1-c1nc(C(=O)NCCN2CCCCC2)c(C(C)C)s1", "values": [{"measurement": "IC50", "value": 750, "unit": "nM"}]}
{"compound": "CCCC(CC)n1ccc2c3c(N)nc(N)nc3ccc21", "note": "(stereo not given)", "values": [{"measurement": "IC50", "value": 10, "unit": "nM"}]}
{"compound": "Fc1ccc2nc(-c3cccc(-c4ccc(CN5CCN(c6cnccn6)CC5)cc4)c3)[nH]c2c1", "values": [{"measurement": "IC50", "value": 890, "unit": "nM"}]}
{"compound": "NC(Cc1ccc(Cl)cc1)=NCCN1CCCCCC1", "values": [{"measurement": "IC50", "value": 740, "unit": "nM"}]}
{"compound": "CCCCCc1cc(O)c2c(c1)OC(C)(C)CC2C1=CCN(Cc2ccccc2)CC1", "note": "(stereo not given)", "values": [{"measurement": "IC50", "value": 770, "unit": "nM"}]}
{"compound": "CCSc1nnc(C2CCCN(CC(=O)Nc3cc(C(F)(F)F)ccc3Cl)C2)n1CC", "note": "(stereo not given)", "values": [{"measurement": "IC50", "value": 230, "unit": "nM"}]}
{"compound": "Cc1nc2ccccc2c(=O)n1NCc1ccc(Cl)c(Cl)c1", "values": [{"measurement": "IC50", "value": 150, "unit": "nM"}]}
{"compound": "O=C(Nc1cccc(CN2CCCN(Cc3cccc(Cl)c3)CC2)c1)c1ccc(Br)cc1", "values": [{"measurement": "IC50", "value": 940, "unit": "nM"}]}
{"compound": "CC(=O)N(Cc1cccc(-c2ccc(CNCCc3ccccc3)cc2)c1)C1CCN(Cc2ccccc2)CC1", "values": [{"measurement": "IC50", "value": 690, "unit": "nM"}]}
{"compound": "CS(=O)(=O)c1ccc(CNCc2ccc(-c3cccc(-c4nc5ccc(F)cc5[nH]4)c3)cc2)cc1", "values": [{"measurement": "IC50", "value": 320, "unit": "nM"}]}
{"compound": "CNC(=O)CNC(=O)COc1cccc2ccccc12", "values": [{"measurement": "IC50", "value": 230, "unit": "nM"}]}
{"compound": "COc1cccc(C(=O)NC(c2ccc(Cl)cc2Cl)c2cc(Cl)c3cccnc3c2O)c1", "note": "(stereo not given)", "values": [{"measurement": "IC50", "value": 450, "unit": "nM"}]}
{"compound": "CN(C)CCNCc1cccc(-c2ccc3c(Nc4cc(O)c(Cl)cc4F)ccnc3c2)c1", "values": [{"measurement": "IC50", "value": 550, "unit": "nM"}]}
{"compound": "CCCCNCc1ccc(-c2nc(CN(Cc3ccc(Cl)c(Cl)c3)C(=O)CN(C)C)cs2)cc1", "values": [{"measurement": "IC50", "value": 800, "unit": "nM"}]}
{"compound": "O=C(c1ccccc1)[C@H]1C[C@@H]1CN1CC=C(c2c[nH]c3ccccc23)CC1", "values": [{"measurement": "IC50", "value": 530, "unit": "nM"}]}
{"compound": "O=C(c1csc(-c2cccnc2)n1)N1CCc2cc3nccc(N4CCN5CCC[C@H]5C4)c3cc21", "values": [{"measurement": "IC50", "value": 700, "unit": "nM"}]}
{"compound": "Cc1nnc2c(NC(=O)NC3CCCC3)cc3ccc(-c4cccc(CN5CCN(C)CC5)c4)cc3n12", "values": [{"measurement": "IC50", "value": 920, "unit": "nM"}]}
{"compound": "O=C(c1ccc(F)c(F)c1)N1CCOC(CCN2CCC(c3ccccc3)CC2)(c2ccc(Cl)c(Cl)c2)C1", "note": "(stereo not given)", "values": [{"measurement": "IC50", "value": 1040, "unit": "nM"}]}
{"compound": "COc1ccc2nc(C)cc(Nc3ccc(Cl)cc3)c2c1", "values": [{"measurement": "IC50", "value": 950, "unit": "nM"}]}
{"compound": "Cc1ccc(Nc2nc(C)cc(Nc3cccc(NS(C)(=O)=O)c3)n2)cc1", "values": [{"measurement": "IC50", "value": 920, "unit": "nM"}]}
{"compound": "COc1ccc2nccc([C@@H](O)CN3CCC(NCc4cc5cccc(O)c5[nH]4)CC3)c2c1", "values": [{"measurement": "IC50", "value": 840, "unit": "nM"}]}
{"compound": "CC(C)c1cc(Oc2c(I)cc(CCN=C(N)N)cc2I)ccc1O", "values": [{"measurement": "IC50", "value": 790, "unit": "nM"}]}
{"compound": "c1cc(CN2CCN(c3ccncc3)CC2)cc(-c2cccc(-c3nc4ccccc4[nH]3)c2)c1", "values": [{"measurement": "IC50", "value": 130, "unit": "nM"}]}
{"compound": "COc1cc(NC(=O)/C=C/c2ccccc2OC(F)(F)F)cc(OCCN2CCCCC2)c1", "values": [{"measurement": "IC50", "value": 190, "unit": "nM"}]}
{"compound": "O=C(/C=C/c1ccc(Cl)c(Cl)c1)NCCCCCN1CCC(C(=O)Nc2ccc3c(c2)OCO3)CC1", "values": [{"measurement": "IC50", "value": 840, "unit": "nM"}]}
{"compound": "COc1ccc(-c2ccc(S(=O)(=O)Nc3cc4c(cc3OC(C)C)CCNCC4)cc2)cc1", "values": [{"measurement": "IC50", "value": 970, "unit": "nM"}]}
{"compound": "CN(C)c1ccc(-c2ccc(C(=O)NC3CCN(Cc4ccccc4)CC3)s2)cc1", "values": [{"measurement": "IC50", "value": 1050, "unit": "nM"}]}
{"compound": "Cc1cc(Nc2ncc3c(n2)N(C2CCC2)CC3)ccc1N1CCN(C)CC1", "values": [{"measurement": "IC50", "value": 1190, "unit": "nM"}]}
{"compound": "CC[C@H](C)CNCc1ccc(OCc2cccc(COc3ccc(CNC[C@@H](C)CC)cc3I)c2)c(I)c1", "values": [{"measurement": "IC50", "value": 400, "unit": "nM"}]}
{"compound": "Cc1cc(NN=Cc2ccccc2[N+](=O)[O-])c2cccc(C)c2n1", "values": [{"measurement": "IC50", "value": 550, "unit": "nM"}]}
{"compound": "COc1cc(C(=O)NC2CCN(Cc3ccccc3)CC2)ccc1-c1nc2c(Cl)cc(C(F)(F)F)cc2[nH]1", "values": [{"measurement": "IC50", "value": 670, "unit": "nM"}]}
{"compound": "CCN(C)C(=O)n1ncc2c3c(N)nc(N)nc3ccc21", "values": [{"measurement": "IC50", "value": 180, "unit": "nM"}]}
{"compound": "Cc1ccc(NC(=O)c2ccc(CN3CCCN(CCC(C)C)CC3)cc2)cc1F", "values": [{"measurement": "IC50", "value": 610, "unit": "nM"}]}
{"compound": "Cc1ccc(-n2c(Cc3cccc4ccccc34)nnc2SCCC#N)c(C)c1", "values": [{"measurement": "IC50", "value": 460, "unit": "nM"}]}
{"compound": "COCCCNC(=S)NN=C(C)c1ccccn1", "values": [{"measurement": "IC50", "value": 300, "unit": "nM"}]}
{"compound": "Cn1c2c(c3ccccc31)CN(CCC1(c3ccc(Cl)c(Cl)c3)CN(C(=O)c3ccccc3)CCO1)CC2", "note": "(stereo not given)", "values": [{"measurement": "IC50", "value": 310, "unit": "nM"}]}
{"compound": "O=C(NC1CCN(CC2(c3ccc(Cl)cc3)CCCCC2)CC1)c1ccn[nH]1", "values": [{"measurement": "IC50", "value": 80, "unit": "nM"}]}
{"compound": "CCc1c(CCNCCCCCCNCCc2ccc(OC)c(OC)c2CC)ccc(OC)c1OC", "values": [{"measurement": "IC50", "value": 730, "unit": "nM"}]}
{"compound": "Cc1cccc2[nH]c(-c3cccc(-c4ccc(NC(=O)CCc5cnc[nH]5)cc4)c3)nc12", "values": [{"measurement": "IC50", "value": 300, "unit": "nM"}]}
{"compound": "COc1cc2nc(NCCc3ccccc3)nc(NCc3nccs3)c2cc1OC", "values": [{"measurement": "IC50", "value": 530, "unit": "nM"}]}
{"compound": "CC(=O)Nc1cccc(C(=O)Nc2cccc(-c3ccc(-c4nc5c(C)cccc5[nH]4)cc3)c2)c1", "values": [{"measurement": "IC50", "value": 910, "unit": "nM"}]}
{"compound": "CS(=O)(=O)c1cccc(-c2ccc3oc(C(N)=O)c(NC(=O)c4cccs4)c3c2)c1", "values": [{"measurement": "IC50", "value": 590, "unit": "nM"}]}
{"compound": "Cc1cc(N[C@@H](Cc2ccccc2)C(=O)NCCOc2ccccc2)nc(NCCOc2ccccc2)n1", "values": [{"measurement": "IC50", "value": 1360, "unit": "nM"}]}
{"compound": "N#CC(c1ccc(F)cc1)c1ccc2c(C(F)(F)F)cc(C(F)(F)F)nc2n1", "note": "(stereo not given)", "values": [{"measurement": "IC50", "value": 730, "unit": "nM"}]}
{"compound": "COc1cccc(NC(=O)c2cc([N+](=O)[O-])ccc2NC(=O)CN2CCc3ccccc3C2)c1", "values": [{"measurement": "IC50", "value": 590, "unit": "nM"}]}
